Data on ten substances can be found in publication PMC8149832, “A comparative study of synthetic winged peptides for absolute protein quantification” (Scientific Reports, 2021).

Ends that are not written are not given here.

The target of the assay is T1, Trypsin (Sus scrofa, UniProt P00761).
T1 construct: purchased Promega V5280
Put plainly: Trypsin digestion efficiency / kinetics of signature peptide formation. Particulars: trypsin 1:20 w/w, 37 °C, SRM peak area; for time to plateau of signature peptide formed from C-terminal extended SIL peptide (in words): AmBic/SDC buffer, quenched at 0.5, 2, 4, 8, 16, 24 h, n = 3, Fig. S4; for formation of signature peptide by trypsin digestion, rate or yield (in words): AmBic/SDC buffer with 5% ACN reconstitution, 0.5-24 h, Figs. 4, S3, S4. The format is biochemical. As to the method:
HSA concentration in the pooled serum sample diluted twofold with ultrapure water was determined using BCG albumin assay kit on the 96-well plate format (cat. #MAK124-1KT, Sigma-Aldrich). The seven-point calibration series was prepared using HSA standard (5 to 50 mg/mL) in ultrapure water. The absorption spectrophotometry was measured at 620 nm wavelength. The pooled serum sample (10 µL), diluted 2000-fold using 50 mM AmBic with 5 mg/mL SDC (AmBic/SDC buffer) to HSA concentration of approx. 500 nM and transferred into a clean microcentrifuge tube. After adding SIL protein or peptide internal standard (10 µL), the sample was reduced (adding 1 µL of 200 mM DTT stock solution, 95 °C, 10 min), cooled down to ambient temperature, and cysteine residues were alkylated (adding 1 µL of 400 mM IAAstock solution, ambient temperature, 30 min in the dark). Trypsin was added to the sample in a 1:20 ratio (w/w enzyme to total protein content), and samples were incubated (37 °C, 16 h) in microcentrifuge tubes sealed with a paraffin film. The enzymatic proteolysis was quenched at different time points (0.5, 2, 4, 8, 16, and 24 h; n = 3) to optimize the incubation time. The proteolysis was quenched by adding 200 µL of 2% FA in water (pH < 3), and tryptic peptides were desalted using a mixed-mode SPE cartridge in a 96-well plate format (Oasis PRIME HLB, Waters, Milford, MA). Samples were loaded onto the SPE cartridge, washed (300 µL water with 2% FA, pH < 3), eluted (50% ACN; 2% FA in water, pH < 3), and the extract was dried in a vacuum concentrator centrifuge (Savant SPD121 P SpeedVac, Thermo Fisher). Samples were dissolved (10 µL) in 5% ACN with 0.1% FA in water before UHPLC-SRM analysis. […]
The enzymatic digestion efficiency severely affects the quantitative performance of a protein assay[10],[11]. […] Overnight trypsin digestion is routinely used for reproducible proteolytic yields as the peptide's stability and formation efficiency may vary[11]. Maximal trypsinization yields of some signature peptides are reached within two hours[10],[16], while other peptides require longer digestion time[30]. We optimized the trypsin digestion duration to ensure reproducible signature peptide yields needed for a quantitative protein assay. We studied the signature peptide formation from light HSA protein and each version of SIL-Ex peptides after 0.5, 2, 4, 8, 16, and 24 h of incubation. SRM peak areas of light and heavy signature peptides and determined HSA protein concentrations (nM) were plotted against incubation time (h), comparing the efficiency of light HSA proteolysis with SIL-Ex peptides (Figs. 4, S3 and S4). The formation of HSA signature peptides LVNE, SLHT, DDNP, YLYE, and QTAL was compared for SIL-TCT, SIL-ExC5, SIL-ExC3N3, and SIL-ExC5N5 peptides (Fig. 4). Besides, the formation of HSA signature peptides DLGE, LCTV, LVTD, TYET, and FQNA was compared for SIL-TCT and SIL-ExC5 peptides only (Fig. S4).

T1 sequence (P00761 9-231): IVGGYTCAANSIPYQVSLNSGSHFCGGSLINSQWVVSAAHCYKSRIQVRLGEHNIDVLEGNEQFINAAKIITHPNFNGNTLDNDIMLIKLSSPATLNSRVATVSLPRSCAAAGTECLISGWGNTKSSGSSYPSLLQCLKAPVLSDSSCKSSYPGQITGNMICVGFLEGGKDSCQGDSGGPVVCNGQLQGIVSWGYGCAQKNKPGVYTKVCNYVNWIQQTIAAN

For the substance DLGEENFKALVLI, the “time to plateau of signature peptide formed from C-terminal extended SIL peptide (in words)” value (shortened to “time to plateau”) is “within the initial two hours”.
Consider “FLQHKDDNPNLPRLVRPE [SIL signature peptide extended with five amino acids at both C- and N-termini]”, for which the “formation of signature peptide by trypsin digestion, rate or yield (in words)” value (“formation of signature peptide” for short) is “mimicking the slow digestion kinetics of light HSA protein”.
As for LC*TVATLRSAnYG [SIL-TCT LCTVATLR], the “time to plateau” value is “within the initial two hours”.
With “RQIKKQTALVELVKHKPKA [SIL signature peptide extended with five amino acids at both C- and N-termini]”, the “formation of signature peptide” value is on record as “lower”.
On the same count and under the same terms, next, “LQHKDDNPNLPRLVR [SIL signature peptide extended with three amino acids at both C- and N-termini]”: “mimicking the slow digestion kinetics of light HSA protein”.
In the case of LC*TVATLRETYGE, the “time to plateau” value was “within the initial two hours”.
Same read-out and setting: the value for DLGEENFKSAnYG [SIL-TCT DLGEENFK] was “within the initial two hours”.
Consider DDNPNLPRLVRPE, for which the “formation of signature peptide” value is on record as “rapidly formed signature peptide DDNP”.
Consider DDNPNLPRSAnYG [SIL-TCT DDNPNLPR], for which the “formation of signature peptide” value was “rapidly formed signature peptide DDNP”.
On to “TFLKKYLYEIARRHPYF (also: stable isotope label, residues not given here) [SIL-ExC5N5 YLYEIAR, SIL signature peptide extended with five amino acids at both C- and N-termini]”, for which the “formation of signature peptide” value is given as “lower”.
